Experimental data as given in patent publication US20250325402A1, “M[…] FOR I[…] METHODS OF USING THE SAME” ([…]., priority 2024, published 2025).

What was measured:
[1] = set-up: species or system pig
From the text: Ex vivo assessment of ocular biodistribution of ICG with OCLX-SCDD Proof of Concept (POC) prototypes and Clearside needles at 900 and 1100 μm in pig eyes.
In this non-GLP study, we evaluated the ability of OCLX-SCDD to deliver accurately to the suprachoroidal space (SCS) and determined the optimal needle length for effective delivery. […] Ex vivo testing involved a comparative analysis of the dye's ocular biodistribution between OCLX-SCDD POCs 1-4 and the established Clearside device, allowing us to determine whether the new design offers improved delivery accuracy and effectiveness. Forty pig eyes were obtained from a farm 1 day prior to testing and SC 120 μl injections (5 mg/ml) were performed (one supertemporal injection site/eye) with ICG. Needles used included 900 μm and 1100 μm length samples from both Oculogenex and Clearside (CLS-900 and CLS-1100). One hour after injection, dissection of the eyes was performed. Images were taken with an iPhone 15 Pro camera after removal of retina, RPE/Choroidal tissue. The ICG-stained area was measured by a masked reader with Image-pro Plus 6 (Media Cybernetisc, Rockville, MD, USA) to objectively assess ICG distribution through software.

[2] = In vivo ocular biodistribution of ICG with OCLX-SCDD POC4 and Clearside needles at 1100 μm; set-up: species or system Yucatan minipig; settings: for ICG stained area, total coverage area: ICG 5 mg/ml SC, 1 h after injection
From the text: In Vivo assessment of ocular biodistribution of ICG with the OCLX-SCDD POC prototype and Clearside needles at 1100 μm in pig eyes.
Suprachoroidal injections enable precise, targeted delivery to the retina, retinal pigment epithelium (RPE), and choroid, potentially offering higher bioavailability to the diseased tissues while minimizing impact on anterior segment tissues. To improve the outcome of gene therapy for AMD through the SCS, we tested if the POC4 SCDD results in ICG dye at the back of the eye. […] This allows entrance into the suprachoroidal space in 4-month-old male minipigs (n=4). Indocyanine Green (ICG), 5 mg/ml, was injected using Clearside 1100 μm (OS) or POC4 of the OCLX-SCDD 1100 μm prototype device (OD) as follows: (1) Mark and confirm selected injection site; (2) Insert the microneedle, creating a small dimple on the ocular surface to allow the tissue to displace gently while the needle enters the suprachoroidal space; (3) Inject slowly and deliberately over 5 seconds to decrease discomfort; (4) After finishing the drug injection, hold the microinjector in place for an additional 3-5 seconds. Light pressure should be applied with a cotton swab after microinjector removal for about 5 seconds; and (5) Perform OCT imaging. (6) Euthanasia was performed according to the IACUC protocol, and 1 hour after injection, eyes were microdissected to assess ICG distribution.
The ICG stained area was measured with Image-pro Plus 6 equipment. […] One of four eyes injected with the OCLX-SCDD 1100 μm POC prototype device had trace amounts of ICG in the vitreous. Based on the results in FIG. 12, to avoid intravitreal injection, alpha prototypes were redesigned to have a shorter length, targeting 925 μm, and future pig studies were performed with this needle length.

[3] = set-up: species or system Yucatan minipig; settings: minipig, in vivo
From the text: OCLX-SCDD alpha prototype targeting of the SC space with ICG in pig eyes (FIG. 12).
Suprachoroidal injections enable precise, targeted delivery to the retina, retinal pigment epithelium (RPE), and choroid, potentially offering higher bioavailability to the diseased tissues while minimizing impact on anterior segment tissues. To improve SC gene therapy outcomes for AMD, we tested the alpha prototype device to determine whether the SCDD results in ICG dye distribution to the posterior pole. […] Indocyanine Green (ICG) (5 mg/ml), OS: 120 μl or OD: 150 μl, was injected using the OCLX-SCDD 925 μm alpha prototype as follows: (1) Mark and confirm selected injection site; (2) Insert the microneedle, being sure to create a small dimple on the ocular surface to allow the tissue to displace gently while the needle enters the suprachoroidal space; (3) Inject slowly and deliberately for 5 seconds; (4) After finishing the drug injection, hold the microinjector in place for an additional 5 seconds. Light pressure should be applied with a cotton swab after microinjector removal for about 5 seconds; and (5) Check IOP after injection. […]
To evaluate the effect of SC injection, images were taken after removal of the retina and RPE/Choroidal tissue (FIG. 14). The ICG stained area was measured with Image-pro Plus 6. […]

CC1(C)C(/C=C/C=C/C=C/C=C2\N(CCCCS(=O)(=O)O)c3ccc4ccccc4c3C2(C)C)=[N+](CCCCS(=O)(=O)[O-])c2ccc3ccccc3c21 [ICG, Indocyanine Green]
OCLX-SCDD prototypes that delivered ICG dye to the SCS alone, no biodistribution to other ocular tissues [1]: 100% | Comparison of ICG-stained area between POC4 and Clearside 1100 μm device ([2]; 1 hour after SC injection and microdissection): no significant difference | ICG stained area, total coverage area ([2]; minipigs in vivo, device Clearside 1100 μm): 55% | ICG stained area, total coverage area ([2]; minipigs in vivo, device OCLX-SCDD POC4 1100 μm): 55% | Eyes with trace amounts of ICG in the vitreous ([2]; minipigs in vivo, device OCLX-SCDD 1100 μm POC prototype): One of four | Eyes with successful targeting of the SC space [3]: 100%
